The values below come from US12662491B2 (Redona Therapeutics, Inc., priority 2020, dated 2026).

For this assay, the target named is T1, Zcchc11 enzyme (Homo sapiens, UniProt Q5TAX3).
T1 construct: made in house; host or cells: HEK293 cells (Zcchc11); E. coli Rosetta II (LIN28A)
T1 sequence (Q5TAX3 212-1420): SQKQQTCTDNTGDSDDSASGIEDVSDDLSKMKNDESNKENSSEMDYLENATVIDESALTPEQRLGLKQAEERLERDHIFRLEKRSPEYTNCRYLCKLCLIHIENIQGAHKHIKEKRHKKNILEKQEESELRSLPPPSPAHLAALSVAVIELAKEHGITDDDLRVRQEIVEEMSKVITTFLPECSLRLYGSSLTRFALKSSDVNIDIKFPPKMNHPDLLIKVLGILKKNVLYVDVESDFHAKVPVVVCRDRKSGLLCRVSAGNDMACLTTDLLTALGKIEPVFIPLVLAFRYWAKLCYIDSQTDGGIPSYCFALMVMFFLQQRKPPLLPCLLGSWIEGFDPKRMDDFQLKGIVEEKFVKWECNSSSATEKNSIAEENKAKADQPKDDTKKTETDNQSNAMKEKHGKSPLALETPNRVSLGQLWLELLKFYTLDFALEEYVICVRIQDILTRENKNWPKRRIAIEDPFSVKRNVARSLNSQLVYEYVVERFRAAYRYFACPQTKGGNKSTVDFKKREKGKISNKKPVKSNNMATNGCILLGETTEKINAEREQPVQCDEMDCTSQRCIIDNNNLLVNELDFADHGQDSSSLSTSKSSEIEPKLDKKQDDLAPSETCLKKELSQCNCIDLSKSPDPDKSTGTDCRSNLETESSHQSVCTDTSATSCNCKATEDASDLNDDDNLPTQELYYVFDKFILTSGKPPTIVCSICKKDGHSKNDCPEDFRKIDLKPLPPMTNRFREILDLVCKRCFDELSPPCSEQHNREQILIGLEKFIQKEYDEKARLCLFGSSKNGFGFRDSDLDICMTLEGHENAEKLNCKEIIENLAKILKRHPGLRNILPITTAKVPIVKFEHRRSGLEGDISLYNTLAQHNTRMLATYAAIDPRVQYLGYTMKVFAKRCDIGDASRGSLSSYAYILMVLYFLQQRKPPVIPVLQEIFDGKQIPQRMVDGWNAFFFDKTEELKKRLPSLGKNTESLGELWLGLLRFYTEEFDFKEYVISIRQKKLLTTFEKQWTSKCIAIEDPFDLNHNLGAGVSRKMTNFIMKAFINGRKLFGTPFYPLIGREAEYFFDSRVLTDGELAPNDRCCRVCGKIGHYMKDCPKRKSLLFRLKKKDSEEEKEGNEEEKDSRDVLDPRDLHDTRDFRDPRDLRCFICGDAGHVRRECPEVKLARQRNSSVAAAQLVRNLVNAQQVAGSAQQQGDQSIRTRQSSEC
In words: TUTase assay (Zcchc11 assay, Lin28a-dependent polyuridylation of pre-let-7). In kind it is biochemical. The settings on record: LIN28A 10 nM, Zcchc11 0.2 nM, 5′-fluorescein pre-let-7 miRNA 2 nM, UTP 5 uM, room temperature, 30 minutes pre-incubation; read-out: Potency Lin28a-dep Z11 IC50. In outline:
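Human Zcchc11 residues 212-1420 (HEK293-expressed, MBP tag cleaved, C-terminal FLAG) at 0.2 nM, with 10 nM full-length human LIN28A and 2 nM 5′-fluorescein pre-let-7, preincubated with compound 30 min at room temperature. Reaction started with 5 uM UTP plus 4 nM 3′-rhodamine A20 quench probe; fluorescein loss read kinetically, IC50 from initial rates.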

Bounds are passed on as bounds.

The term IC50 denotes the concentration that gives 50% inhibition. For the compound `O=C(O)c1cn(-c2cnccn2)c2cc(N3C[C@@H](F)C[C@@H]3COc3ncccc3Cl)c(Cl)cc2c1=O` [Example 41, 6-chloro-7-[(2R,4S)-2-{[(3-chloropyridin-2-yl)oxy]methyl}-4-fluoropyrrolidin-1-yl]-4-oxo-1-(pyrazin-2-yl)-1,4-dihydroquinoline-3-carboxylic acid], the IC50 is no more than 1 µM. The same measure for `CN(C)C1CN(c2ccc(-n3cc(C(=O)O)c(=O)c4cc(C#N)c(N5C6CCC5(COc5ncccc5F)CC6)cc43)cn2)C1` [Example 42, 6-cyano-1-(6-(3-(dimethylamino)azetidin-1-yl)pyridin-3-yl)-7-(1-(((3-fluoropyridin-2-yl)oxy)methyl)-7-azabicyclo[2.2.1]heptan-7-yl)-4-oxo-1,4-dihydroquinoline-3-carboxylic acid]: no more than 1 µM; for `O=C(O)c1cn(-c2cnc(OCCO)cn2)c2cc(N3CCC[C@@H]3COc3ncccc3Cl)c(Cl)cc2c1=O` [Example 45, 6-chloro-7-[(2R)-2-[[(3-chloropyridin-2-yl)oxy]methyl]pyrrolidin-1-yl]-1-[5-(2-hydroxyethoxy)pyrazin-2-yl]-4-oxoquinoline-3-carboxylic acid]: no more than 1 µM. The same measure for `O=C(O)c1cn(-c2cnc3c(n2)COC3)c2cc(N3CCC[C@@H]3COc3ncccc3Cl)c(Cl)cc2c1=O` [Example 46, 6-chloro-7-[(2R)-2-[[(3-chloropyridin-2-yl)oxy]methyl]pyrrolidin-1-yl]-1-[5H,7H-furo[3,4-b]pyrazin-2-yl]-4-oxoquinoline-3-carboxylic acid]: no more than 1 µM. The same measure for `CN(C)C1CN(c2ccc(-n3cc(C(=O)O)c(=O)c4cc(Cl)c(N5C(COc6ncccc6Cl)CCS5(=O)=O)cc43)cn2)C1` (centres unmarked) [Example 47, 6-chloro-7-(3-(((3-chloropyridin-2-yl)oxy)methyl)-1,1-dioxidoisothiazolidin-2-yl)-1-(6-(3-(dimethylamino)azetidin-1-yl)pyridin-3-yl)-4-oxo-1,4-dihydroquinoline-3-carboxylic acid]: no more than 1 µM; for `CN(C)C1CN(c2ccc(-n3cc(C(=O)O)c(=O)c4cc(Cl)c(N5CCC6CC65COc5ncccc5Cl)cc43)cn2)C1` (centres unmarked) [Example 48, 6-chloro-7-(1-[[(3-chloropyridin-2-yl)oxy]methyl]-2-azabicyclo[3.1.0]hexan-2-yl)-1-[6-[3-(dimethylamino)azetidin-1-yl]pyridin-3-yl]-4-oxoquinoline-3-carboxylic acid]: no more than 1 µM. Consider `CN(C)C(=O)OC[C@H]1CCCN1c1cc2c(cc1Cl)c(=O)c(C(=O)O)cn2-c1ccc(N2CC(N(C)C)C2)nc1` [Example 49, 6-chloro-1-[6-[3-(dimethylamino)azetidin-1-yl]pyridin-3-yl]-7-[(2R)-2-[[(dimethylcarbamoyl)oxy]methyl]pyrrolidin-1-yl]-4-oxoquinoline-3-carboxylic acid], for which the IC50 was no more than 1 µM.

As to `NCCOc1cccnc1OC[C@H]1CCCN1c1cc2c(cc1Cl)c(=O)c(C(=O)O)cn2-c1ccc(Br)nc1` [Example 50, (R)-7-(2-(((3-(2-aminoethoxy)pyridin-2-yl)oxy)methyl)pyrrolidin-1-yl)-1-(6-bromopyridin-3-yl)-6-chloro-4-oxo-1,4-dihydroquinoline-3-carboxylic acid], the IC50 is no more than 1 µM.

With `CN(C)C1CN(c2ccc(-n3cc(C(=O)O)c(=O)c4cc(C#N)c(N5CCC[C@@]5(C)COc5ncccc5F)cc43)cn2)C1` [Example 51, (S)-6-cyano-1-(6-(3-(dimethylamino)azetidin-1-yl)pyridin-3-yl)-7-(2-(((3-fluoropyridin-2-yl)oxy)methyl)-2-methylpyrrolidin-1-yl)-4-oxo-1,4-dihydroquinoline-3-carboxylic acid], the IC50 was no more than 1 µM. The same measure for `Cc1cc2c(=O)c(C(=O)O)cn(-c3ccc(N4CC(N(C)C)C4)nc3)c2cc1N1C(=O)CC1COc1ccccn1` (centres unmarked) [Example 52, 1-(6-(3-(dimethylamino)azetidin-1-yl)pyridin-3-yl)-6-methyl-4-oxo-7-(2-oxo-4-((pyridin-2-yloxy)methyl)azetidin-1-yl)-1,4-dihydroquinoline-3-carboxylic acid]: 10 to 50 µM; for `CN(C)c1ccc(-n2cc(C(=O)O)c(=O)c3cc(Cl)c(N4CCC[C@@H]4COc4ncccc4OCCN)cc32)cn1` [Example 53, 7-[(2R)-2-([[3-(2-Aminoethoxy)pyridin-2-yl]oxy]methyl)pyrrolidin-1-yl]-6-chloro-1-[6-(dimethylamino)pyridin-3-yl]-4-oxoquinoline-3-carboxylic acid]: no more than 1 µM.

As for `CN(C)C1CN(c2ccc(-n3cc(C(=O)O)c(=O)c4cc(C#N)c(N5C(=O)CC[C@@H]5COc5ncccc5Cl)cc43)cn2)C1` [Example 54, (R)-7-(2-(((3-chloropyridin-2-yl)oxy)methyl)-5-oxopyrrolidin-1-yl)-6-cyano-1-(6-(3-(dimethylamino)azetidin-1-yl)pyridin-3-yl)-4-oxo-1,4-dihydroquinoline-3-carboxylic acid], the IC50 is 10 to 50 µM. In the case of `O=C(O)c1cn2c3cc(c(Cl)cc3c1=O)N1CCC[C@@H]1COc1nc(ccc1Cl)OCCCNc1ccc-2cn1` [Example 55, (R)-26,63-dichloro-24-oxo-21,24-dihydro-5,7-dioxa-11-aza-2(1,7)-quinolina-1(5,2),6(2,6)-dipyridina-3(1,2)-pyrrolidinacycloundecaphane-23-carboxylic acid] it was 10 to 50 µM; in that of `CN(C)C1CN(c2ccc(-n3cc(C(=O)O)c(=O)c4cc(Cl)c(N5CCC[C@]5(C)COc5ncccc5Cl)nc43)cn2)C1` [Example 56, 6-chloro-7-[(2R)-2-[[(3-chloropyridin-2-yl)oxy]methyl]-2-methylpyrrolidin-1-yl]-1-[6-[3-(dimethylamino)azetidin-1-yl]pyridin-3-yl]-4-oxo-1,8-naphthyridine-3-carboxylic acid], no more than 1 µM; in that of `CN(C)C1CN(c2ccc(-n3cc(C(=O)O)c(=O)c4cc(Cl)c(N5CC6(CCC6)CC5COc5ncccc5Cl)cc43)cn2)C1` (centres unmarked) [Example 57, 6-Chloro-7-(7-(((3-chloropyridin-2-yl)oxy)methyl)-6-azaspiro[3.4]octan-6-yl)-1-(6-(3-(dimethylamino)azetidin-1-yl)pyridin-3-yl)-4-oxo-1,4-dihydroquinoline-3-carboxylic acid], no more than 1 µM. In the case of `CN(C)C1CN(c2ccc(-n3cc(C(=O)O)c(=O)c4cc(Cl)c(N5CC(C)(C)C[C@@H]5COc5ncccc5Cl)cc43)cn2)C1` [Example 58, 6-chloro-7-[(2R)-2-[[(3-chloropyridin-2-yl)oxy]methyl]-4,4-dimethylpyrrolidin-1-yl]-1-[6-[3-(dimethylamino)azetidin-1-yl]pyridin-3-yl]-4-oxoquinoline-3-carboxylic acid] it was no more than 1 µM; in that of `CN(C)C1CN(c2ccc(-n3cc(C(=O)O)c(=O)c4cc(Cl)c(N5CCC(C)(C)C5COc5ncccc5Cl)cc43)cn2)C1` (centres unmarked) [Example 59, 6-chloro-7-(2-{[(3-chloropyridin-2-yl)oxy]methyl}-3,3-dimethylpyrrolidin-1-yl)-1-{6-[3-(dimethylamino)azetidin-1-yl]pyridin-3-yl}-4-oxoquinoline-3-carboxylic acid], no more than 1 µM.
